In PubChem BioAssay (NCI):
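Cells were grown in 96-well plates and exposed to each compound for 48 hours at five concentrations; endpoints were interpolated linearly between bracketing concentrations, or set to the highest concentration if not reached. TGI denotes the concentration required for complete inhibition of growth.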

How the values were obtained:
Assay in all cases: NCI-60 cell line screen, 48 h
UACC-62 melanoma = test system: UACC-62 melanoma
DU-145 prostate = test system: DU-145 prostate
EKVX NSCLC = test system: EKVX NSCLC
TK-10 renal = test system: TK-10 renal
HT29 colon = test system: HT29 colon
MALME-3M melanoma = test system: MALME-3M melanoma
SF-539 CNS = test system: SF-539 CNS
PC-3 prostate = test system: PC-3 prostate
SK-OV-3 ovarian = test system: SK-OV-3 ovarian
SK-MEL-28 melanoma = test system: SK-MEL-28 melanoma
MDA-N = test system: MDA-N
IGROV1 ovarian = test system: IGROV1 ovarian
SNB-19 CNS = test system: SNB-19 CNS
MDA-MB-435 = test system: MDA-MB-435
NCI-H226 lung = test system: NCI-H226 lung
SW-620 colon = test system: SW-620 colon
HOP-92 NSCLC = test system: HOP-92 NSCLC
K-562 leukemia = test system: K-562 leukemia
SR leukemia = test system: SR leukemia
RPMI-8226 leukemia = test system: RPMI-8226 leukemia

Compound | TGI (UACC-62 melanoma) [µM] | TGI (DU-145 prostate) [µM] | TGI (EKVX NSCLC) [µM] | TGI (TK-10 renal) [µM] | TGI (HT29 colon) [µM] | TGI (MALME-3M melanoma) [µM] | TGI (SF-539 CNS) [µM] | TGI (PC-3 prostate) [µM] | TGI (SK-OV-3 ovarian) [µM] | TGI (SK-MEL-28 melanoma) [µM] | TGI (MDA-N) [µM] | TGI (IGROV1 ovarian) [µM] | TGI (SNB-19 CNS) [µM] | TGI (MDA-MB-435) [µM] | TGI (NCI-H226 lung) [µM] | TGI (SW-620 colon) [µM] | TGI (HOP-92 NSCLC) [µM] | TGI (K-562 leukemia) [µM] | TGI (SR leukemia) [µM] | TGI (RPMI-8226 leukemia) [µM]
CCOC(=O)C1(C/C=C/CBr)CCc2ccccc2C1=O (stereo not drawn) | 28.7 | 26.9 | 55 | 35.2 | 52.3 | 41.3 | 36.2 | 43 | 33.1 | 35.6 | 30.3 | 26.2 | 30.8 | 31 | 27.7 | 30.3 |  |  |  | 
N#Cc1[nH]c(=S)[nH]c1N | > 100 | > 100 | > 100 | > 100 | > 100 | > 100 | > 100 | > 100 | > 100 | > 100 |  | > 100 | > 100 | > 100 | > 100 | > 100 | > 100 | > 100 | > 100 | 
COc1ccc(-n2cnn3c(=O)c4cn[nH]c4nc23)cc1 |  | > 10 | > 10 | > 10 | > 10 | > 10 | > 10 | > 10 | > 10 |  |  |  | > 10 | > 10 | > 10 |  | > 10 | > 10 | > 10 | 
Cc1ccc(-c2n[nH]c(=O)n2/N=C\c2ccc([N+](=O)[O-])cc2)cc1 | > 100 | > 100 | > 100 | > 100 | > 100 | > 100 | > 100 | > 100 | > 100 | > 100 |  | > 100 | > 100 | > 94.2 | > 100 | > 100 | > 100 | > 94.2 | > 100 | > 100
COC(=O)[C@]12CCC(C)(C)C[C@H]1[C@H]1C(=O)C=C3[C@@]4(C)C=C(C#N)C(=O)C(C)(C)[C@@H]4CC[C@@]3(C)[C@]1(C)CC2 | 0.0945 | 0.295 | 0.208 | 0.152 |  | 0.143 | 0.103 | 0.469 | 1.1 |  |  | 1.15 | 0.243 | 0.0585 | 0.301 | 0.946 | 4.03 | > 27.9 | 0.141 | 0.126
Nc1nc(NCC2(CO)CC2)cc(=O)[nH]1 | > 100 | > 100 | > 100 |  | > 100 | > 100 |  | > 100 | > 100 | > 100 |  | > 100 | > 100 | > 100 | > 100 | > 100 | > 100 | > 100 | > 100 | > 100
COc1ccc2c(c1)C(=O)OCCC2 | > 100 | > 100 | > 100 | > 100 | > 100 |  | > 100 | > 100 | > 100 | > 100 |  | > 100 | > 100 | > 100 | > 100 | > 100 | > 100 | > 100 |  | > 100
COC(=O)C1=C(C(=O)Nc2cccnc2Cl)N(c2ccc(OC)cc2[N+](=O)[O-])C(c2ccc(C)cc2)=CC1c1ccc(OC)cc1OC (stereo not drawn) | > 100 | > 90.1 | > 81.9 | > 64.2 | 47.9 | 53.3 | 16.7 | > 100 | 62.9 | > 100 |  | 33.7 | > 88.6 | > 100 | 38.1 | 22.7 | > 100 | > 100 | 21.6 | 21.5
CCCCSC1=N/C(=C\c2ccco2)C(Cl)=N1 | > 100 | > 100 | > 100 | > 100 | > 100 | > 100 |  | > 100 | > 100 | > 100 | > 100 | > 100 | > 100 | > 100 | > 100 | > 100 |  |  |  | > 100
Fc1ccc(C(=C2CCN(CCc3ccc4[nH]c(=S)[nH]c4c3)CC2)c2ccc(F)cc2)cc1 | 19 | 8.91 | 9.04 | 4.74 | 3.82 | 3.89 | 7.74 | 8.76 | 36.8 | 2.63 | 4.81 | 17 | 27.9 |  | 52.3 | > 100 | 8.51 | > 100 |  | 8.67
COc1cc(C(C)=O)cc(C(=O)N(C(C)C)C(C)C)c1[Si](C)(C)C | > 100 | > 100 |  | > 100 |  |  | > 100 | > 100 | 99.2 | > 100 | > 100 | > 100 | > 100 | > 100 | > 100 | > 100 | > 100 |  |  | 
COc1ccc(C2OC(N)=C(C#N)C3=C2CCCC3C)cc1OC (stereo not drawn) | > 100 | > 100 | > 100 | > 100 | > 100 | > 100 | > 100 | > 100 | > 100 | > 100 | > 100 | > 100 | > 100 | > 100 | > 100 | > 100 |  | > 100 |  | > 100
CN1C(=O)CSC1=S | > 100 |  |  | > 100 | > 100 | > 100 | > 100 |  | > 100 | > 100 |  | > 100 |  |  | > 100 | > 100 | > 100 | > 100 | > 100 | > 100
CCOC(=O)c1c(NC(=O)OC)c(C#N)c2n1CCCCC2 | > 100 | 43.9 | > 100 | > 100 | > 100 |  | > 100 | > 100 | > 100 | > 100 |  | > 100 | > 100 | > 100 | > 100 | > 100 | > 100 | > 100 | > 100 | > 100
Cc1ccccc1N/C(=C(/C(Cl)=C(Cl)Cl)[N+](=O)[O-])n1nnc2ccccc21 | 71.9 | 62.2 | 40.9 |  | 35.5 | 27.9 | 39.1 | 80.7 | 40.7 | 30.9 |  |  | 46.8 | 30.1 | 35.3 | 29.4 |  | > 100 |  | > 100
COc1ccc(-c2nc(-c3cc4c(ccc5ccccc54)oc3=O)cs2)cc1 | > 100 | > 100 | > 100 | > 100 | > 100 |  | > 100 | > 100 | > 100 | > 100 |  | > 100 | > 100 | > 100 | > 100 | > 100 | > 100 | > 100 | > 100 | > 100
COC(=O)c1ccccc1Nc1nc(-c2cccs2)nc2cc(OC)c(OC)cc12 | > 100 | > 100 | > 100 | 70.2 | > 100 | > 100 | 85.9 | > 100 | > 100 | > 100 |  | 74.7 | > 100 | > 100 | 89.4 | > 100 | > 100 | > 100 | > 100 | > 100
Oc1cc(O)cc(-c2nc3cc(F)ccc3s2)c1 | 40.7 | > 100 |  | 76.5 | 44.8 | > 100 | 68.3 | 83.6 | 70.4 | 77 | > 100 | 70.9 | 97.2 | > 100 | 64.2 | > 100 |  |  |  | 50.2
COc1cc(N(CCC#N)CCC#N)ccc1/C(N=Nc1ccccc1C)=N\NC(=O)c1ccc(C)cc1 | > 100 | > 100 | > 100 | > 100 | > 100 | > 100 |  | > 100 | > 100 | > 100 | 58.8 | > 100 | > 100 | > 100 | > 100 | > 100 | > 100 | > 100 |  | 
c1ccc(NN=C(c2ccccn2)c2ccccn2)nc1 |  | > 100 | > 100 | > 100 | > 100 | 26.1 | > 47.5 | > 100 | > 100 | > 100 | > 100 | > 100 | > 100 | > 100 |  | > 100 | > 100 | > 100 |  | 
COC1=CC2C(c3cc4ccccc4n3S(=O)(=O)c3ccccc3)CC1CN2C(=O)OCc1ccccc1 (stereo not drawn) | > 100 | > 100 | 82.2 | > 100 | 65.1 | 61 |  | > 100 | 98.1 |  | > 100 | > 100 |  | 75.9 | > 100 | > 100 |  | 76.5 |  | 44.6
O=C(O/C=C\OC1CCCC1(c1ccccc1)c1ccccc1)c1ccccc1 (stereo not drawn) | 16.8 | 13.6 | 34.8 | 17.9 | 13.8 |  | 13.5 | 13.6 | 30.5 | 18.3 | 9.32 | 9.37 | 28.9 |  | 43.2 | 11.3 | 4.97 | > 36 |  | 6.44
